Source: patent publication US12234482B2, “Culture medium for expanding and culturing human liver progenitor cells and application thereof” (Guangzhou Institutes of Biomedicine and Health, Chinese …, priority 2019, dated 2025)

Key:
[1] = test system: HBs; assay: Effects of signaling pathways regulated by small molecules on proliferation of HBs; assay type: cell-based, human; details: small molecule regulating a signaling pathway; FIGS. 2B and 2C
Method: Further, effects of the signaling pathways on the proliferation and differentiation of HBs were analyzed by regulating the related signaling pathways with small molecules.

[2] = test system: HBs; assay: Effects of signaling pathways regulated by small molecules on characteristics of HBs (AFP expression); assay type: cell-based, human; details: FIG. 2D
From the text: In addition to proliferation, the effects of the related signaling pathways on the characteristics of HBs were further analyzed.

## CNC1CCC(N(Cc2cccc(-c3ccncc3)c2)C(=O)c2sc3ccccc3c2Cl)CC1 (stereo not drawn) [SAG]
[1]
  proliferation of HBs: promoted the proliferation of HBs
[2]
  expression of AFP / maintenance of the characteristics of HBs: promoted the expression of liver cell-related genes such as AFP

## Cc1cccc(-c2nn(C(=S)Nc3ccccc3)cc2-c2ccnc3ccccc23)n1 [A8301]
[1]
  proliferation of HBs: promoted the proliferation of HBs
[2]
  expression of AFP / maintenance of the characteristics of HBs: promoted the expression of liver cell-related genes such as AFP

## Cc1c[nH]c(-c2cnc(NCCNc3ccc(C#N)cn3)nc2-c2ccc(Cl)cc2Cl)n1 [CHIR, CHIR99021]
[1]
  proliferation of HBs: promoted the proliferation of HBs
[2]
  expression of AFP / maintenance of the characteristics of HBs: inhibited the expression of AFP
